Values of other authors, collected in EP0959130A1, “Cloning and expression of a new glucoamylase gene from endomyces fibuliger” (SOCIETE DES PRODUITS NESTLE S.A., priority 1998, dated 1999).

Experiments:
[1] = system: Glucoamylase I from E.fibuliger IFO 0111; settings: purified Glucoamylase I; from Futatsugi et al., 1993; read-out: Km for maltose
[2] = system: Glucoamylase II from E.fibuliger IFO 0111; settings: purified Glucoamylase II; from Futatsugi et al., 1993; read-out: Km for maltose

Km [1]: 8.3 mM
Km [2]: 2.6 mM
Structure (SMILES): OC[C@H]1O[C@H](O[C@H]2[C@H](O)[C@@H](O)C(O)O[C@@H]2CO)[C@H](O)[C@@H](O)[C@@H]1O (mixture of isomers) [maltose]
